The record followed here is patent US20200017449A1, “HYDANTOINS THAT MODULATE BACE-MEDIATED APP PROCESSING” (Buck Institute for Research on Aging, priority 2013, published 2020).

By IC50 is commonly meant the point on the concentration scale where inhibition reaches its midpoint.

Assay [1] deals with T1, BACE1 (Homo sapiens, UniProt P56817).
T1 construct: purchased R&D 931-AS-050
Put plainly: BACE1 P5-P5′ fluorescence substrate assay (APP-BACE1 IC50). The class given is biochemical. The following applies: Table 1; read-out: BACE IC50. As for the experimental part:
In one illustrative embodiment, an MBP-C125 APP695 wt fusion protein can be used as one of the substrates and the second substrate can be the commercially available P5-P5′ fluorescence substrate.
Briefly, 0.01 units of BACE1 were incubated for 1 h at room temperature with a BACE inhibitor, then the substrate was added to each well and the fluorescence was read immediately and every 30 min for 2 h. Activity was determine by dividing the fluorescence at a specific [BACE inhibitor] by the fluorescence at [BACE inhibitor]=0 μM, the % activity was plotted vs log[BACE inhibitor] to determine the APP-BACE1 using GraphPad Prism 5 (FIG. 6A)

Assay [2] relates to Aβ42. As to the kind of experiment: Aβ lowering in brain uptake animals. The format is in vivo. The conditions noted are these: NTg mice. As for the experimental part:
Compound 2 and other hydantoins were produced (see, e.g., compounds 1-5 pharmacokinetic evaluation of these hydantoins was determined in brain uptake assays using NTg mice (see, e.g., Table 1). It was also determined that Compound 1 lowered Aβ42 in the same animals at 5 mpk, while compound 3 lowered Aβ at 1 mpk.

Assay [3] deals with T2, TRX-eAPP575-624 (Homo sapiens, UniProt P05067).
T2 construct: residues 575-624 of the APP ectodomain; made in house
As to the kind of experiment: SPR (Biacore) binding to ectodomain of APP. As for the experimental part: The binding affinity of the compounds for the ectodomain of APP was determined using SPR. […] The eAPP was crosslinked linked to the CM5 Biacore chips (GE Healthcare).
FC1 served as a reference cell following a mock immobilization with buffer alone. For all cells, the flow rate was 10 μl per min. The chip was blocked with 1M ethanolamine (pH 8.5). […] Binding traces were recorded for each dilution with a binding phase of 60 seconds and a dissociation phase of 240 seconds. Each cycle was performed at 20° C. with a constant flow rate of 20 μl/min. An additional 240 seconds of buffer flow at 60 μl per min across the cells was applied as a regeneration phase to facilitate complete dissociation of the compound from the protein. The sensograms were obtained by subtraction of the reference and buffer signals using the Biacore T100 Evaluation software. The binding curves were modeled with the PRISM (Graphpad Inc).
Background: Surface plasmon resonance follows binding to a sensor surface in real time, without labels.

Assay [4] concerns Aβ1-42 in SH-SY5Y neuroblastoma cells. Put plainly: Aβ1-42 in SH-SY5Y cells (ELISA). The format is cell-based, human. The following applies: FIG. 5. The method, then: SH-SY5Y neuroblastoma cells were seeded at 50,000 cells/well in a 96 wells plate for 24 h. Then their medium was changed for fresh medium supplemented with desired concentration of the hydantoin compound (e.g. compound 3). After 24 h, 20 μl of the medium was added to 2 μl of the complete protease inhibitor with 1 μM EDTA and kept at 4° C. until analysis using the ELISA assay below.
ELISA kits from Invitrogen were also used to quantify Aβ1-42 (KHB3544) in duplicate. For the Aβ1-42 ultrasensitive ELISA, samples were diluted 1:2 (50 μl CSF plus 50 μl kit-provided standard diluent buffer). Assays were performed according to manufacturer's instructions. In short, standards and samples were added to a plate pre-coated with a monoclonal capture antibody specific for the amino terminus of Hu Aβ. The samples were co-incubated with a rabbit detection antibody (Ab) specific for the carboxy terminus of the Aβ species being assayed for 3 hr at room temperature overnight at 4°(Aβ1-42) with gentle rocking. After washing, bound rabbit Ab was detected using a horseradish peroxidase-labeled anti-rabbit secondary Ab. After washing again, bound HRP-anti rabbit Ab was detected colorimetrically (Spectramax 190, Molecular Devices) by the addition of a substrate solution. […]
For orientation: An ELISA detects its analyte on a solid surface through an enzyme-linked reagent.

Where [5] appears, read: Table 1, SPR, read-out: APP binding Kd.

Read-outs that look alike come from different tables or passages of the source.

T2 sequence (P05067 650-699): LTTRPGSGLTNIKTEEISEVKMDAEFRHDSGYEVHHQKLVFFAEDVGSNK
T1 sequence (P56817 46-501): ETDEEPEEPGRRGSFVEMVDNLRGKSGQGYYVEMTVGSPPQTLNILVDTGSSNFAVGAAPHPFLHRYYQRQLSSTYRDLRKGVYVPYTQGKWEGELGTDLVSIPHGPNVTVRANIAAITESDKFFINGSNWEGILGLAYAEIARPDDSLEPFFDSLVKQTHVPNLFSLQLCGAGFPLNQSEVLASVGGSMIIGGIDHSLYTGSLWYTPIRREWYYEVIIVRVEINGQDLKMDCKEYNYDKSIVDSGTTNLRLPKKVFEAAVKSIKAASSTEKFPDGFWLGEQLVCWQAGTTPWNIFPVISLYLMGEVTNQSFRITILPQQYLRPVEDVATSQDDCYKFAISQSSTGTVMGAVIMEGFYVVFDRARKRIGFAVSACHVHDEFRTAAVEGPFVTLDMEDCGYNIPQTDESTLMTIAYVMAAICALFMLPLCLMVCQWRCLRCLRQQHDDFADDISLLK

With `CN1C(=O)C(c2ccccc2)(c2cc(F)cc(F)c2)N=C1N` (stereo not drawn) [FAH-1], the IC50 in assay [1] stood at 3000 nM. In assay [2] (5 mpk), the “lowering of Aβ42 in vivo” value was “lowered Aβ42”.
Turning to `CN1C(=O)C(c2ccc(OC(F)F)cc2)(c2cc(F)cc(F)c2)N=C1N` (stereo not drawn) [FAH-2, 2-amino-4-(4-(difluoromethoxy)phenyl)-4-(3,5-difluorophenyl)-1-methyl-1H-imidazol-5(4H)-one], the Kd in assay [3] (setting [5]) was 8 µM. The IC50 in assay [1] was 2000 nM.
On to `Cc1cc(C2(c3cc(F)cc(F)c3)N=C(N)N(C)C2=O)ccc1OC(F)F` (stereo not drawn) [FAH-3, 2-amino-4-(4-(difluoromethoxy)-3-methylphenyl)-4-(3,5-difluorophenyl)-1-methyl-1H-imidazol-5(4H)-one], for which the “binding to eAPP (qualitative)” value in assay [3] (SPR / BiaCore, FIG. 4) is on record as “binding to eAPP575-624”. The IC50 in assay [1] amounted to 520 nM. In addition, in assay [4], the “inhibition of Aβ production” value was “inhibition of Aβ production”. In assay [2] (1 mpk), the “lowering of Aβ in vivo” value is on record as “lowered Aβ”.
Turning to `CN1C(=O)C(c2cc(F)cc(F)c2)(c2cccc(OC(F)F)c2)N=C1N` (stereo not drawn) [FAH-4, 2-amino-4-(3-(difluoromethoxy)phenyl)-4-(3,5-difluorophenyl)-1-methyl-1H-imidazol-5(4H)-one], the IC50 in assay [1] was determined as 2100 nM.
`Cc1cc(C)cc(C2(c3cc(F)cc(F)c3)N=C(N)N(C)C2=O)c1` (stereo not drawn) [FAH-5, 2-amino-4-(3,5-difluorophenyl)-4-(3,5-dimethylphenyl)-1-methyl-1H-imidazol-5(4H)-one]: the IC50 in assay [1] was found to be 5000 nM.
For the molecule `Cc1cc(C2(c3cccc(F)c3)N=C(N)N(C)C2=O)ccc1OC(F)F` (stereo not drawn) [FAH-17, 2-amino-4-(4-(difluoromethoxy)-3-methylphenyl)-4-(3-fluorophenyl)-1-methyl-1H-imidazol-5(4H)-one], the Kd in assay [3] (setting [5]) was less than 1 µM; in assay [3] (Table 5, Secondary Screen, read-out: APP Kd) it was less than 1 µM.
